How the values were obtained:
Plasmodium falciparum [1] = assay: NOVARTIS: Inhibition of Plasmodium falciparum 3D7 (drug-susceptible) proliferation in erythrocyte-based infection assay; format: functional, organism-based; settings: Plasmodium falciparum, 3D7
[2] = NOVARTIS: Cytotoxicity against human hepatocellular carcinoma cell line (Huh7); format: toxicity, cell-based, Huh-7; settings: Huh7 cells (hepatocellular carcinoma cell line)
Plasmodium falciparum [3] = assay: NOVARTIS: Inhibition of Plasmodium falciparum W2 (drug-resistant) proliferation in erythrocyte-based infection assay; format: functional, organism-based; settings: Plasmodium falciparum, W2; read-out: EC50

SMILES | EC50 (Plasmodium falciparum [1]) | CC50 [2] | EC50 (Plasmodium falciparum [3])
COC(=O)C1=C(C)N/C(=C\c2cc(C)n(-c3cc(C)ccc3OC)c2C)C1=O | 0.4 µM | > 10 µM | > 1.25 µM
O=C(Nc1ccc(-c2ccc(Cl)cc2)cc1)c1cccs1 | 0.285 µM | > 100 µM | 0.225 µM
Cc1ccc(C)c2[nH]c(=O)c(CN(Cc3ccccc3)C(=S)NCCCN(C)C)cc12 | 5.22 µM | 19.5 µM | > 4.67 µM
O=c1c2c3c(sc2ncn1Cc1cccc(Cl)c1)CC(N1CCCCC1)CC3 (stereo not drawn) | 2.95 µM | 27.8 µM | 2.64 µM
Cc1ccc(-n2cc(C(=O)N(C)Cc3ccccc3)c3ccccc3c2=O)cc1C | > 9.84 µM | > 100 µM | 2.93 µM
O=C(C1CCCCN1)N1CC(c2ccccc2)c2ccccc2C1CN1CCCCC1 (stereo not drawn) | 0.439 µM | 4.68 µM | 0.257 µM
COc1ccc(CCNc2nc(NCCC3CCCN3C)ncc2C(=O)NCc2ccccc2)cc1OC (stereo not drawn) | 1.06 µM | > 10 µM | > 0.802 µM
O=C(CCl)Nc1ccc(CN2CCCCC2)cc1 | 0.976 µM | 34.1 µM | 0.911 µM
c1ccc(Cn2nnnc2CN2CCN(C(c3ccccc3)c3ccccc3)CC2)cc1 | 2.87 µM | > 100 µM | 1.67 µM
C=CCc1cc([N+](=O)[O-])cc2c1OC1(C=C2)N(c2ccccc2)c2ccccc2C1(C)C (stereo not drawn) | 0.396 µM | > 10 µM | 0.885 µM
c1ccc(-c2nc3cc4ccccc4cc3nc2-c2ccsc2)cc1 | 3.44 µM | > 100 µM | 2.83 µM
CCc1cc2c3c(c1)C1(C(=O)N3C(C)(C)CC2C)C(C#N)=C(N)Oc2cc(C)oc(=O)c21 (stereo not drawn) | 1.47 µM | > 100 µM | 0.228 µM
Cc1ccc2c(c1)C(C)(c1ccc(Cl)cc1)CC(C)(C)N2C(=O)COc1ccc2ccccc2c1 (stereo not drawn) | > 12.5 µM | > 100 µM | 0.124 µM
Cc1ccc2[nH]c3c(NCCc4ccccc4F)ncnc3c2c1 | 0.835 µM | 16.5 µM | 0.843 µM
CC(=O)N1c2ccccc2CC1C(=O)NCc1cccc(Cl)c1 (stereo not drawn) | > 12.5 µM | > 100 µM | > 6.46 µM
CCOc1ccc(NC(=O)c2ccc(I)o2)cc1 | 4.85 µM | 69.6 µM | 5.79 µM
COc1cc(C(=O)NC2CC2)ccc1OC1CCN(CC(c2ccccc2)c2ccccc2)CC1 | 0.0444 µM | 23.5 µM | 0.0185 µM
COc1ccc(C=NNc2nc3ccccc3[nH]2)cc1OC | 0.243 µM | 36.5 µM | 0.129 µM
O=C(c1ccc2c(c1)OCO2)N1CCOC(c2ccc(Cl)cc2)C1 (stereo not drawn) | 1.63 µM | > 100 µM | 4.11 µM
O[C@@]1(c2cc3ccccc3s2)CN2CCC1CC2 | 0.177 µM | > 10 µM | 0.101 µM
CCc1cc2c(Nc3ccncc3)ncnc2s1 | 2.5 µM | > 100 µM | 2.94 µM
CCOC(=O)c1c(NC(=O)C(C)Sc2nnc(CNC(=O)c3ccco3)n2-c2cccc(C(F)(F)F)c2)sc2c1CCC2 (stereo not drawn) | > 12.5 µM | > 100 µM | 0.649 µM
COCCNC(=S)N(Cc1ccc(F)cc1)Cc1cc2ccc(C)c(C)c2[nH]c1=O | 0.412 µM | > 10 µM | 0.0642 µM
CC(C)(C)C1CCc2[nH]c3ccccc3c(=O)c2C1 (stereo not drawn) | 0.852 µM | > 100 µM | 0.976 µM
CCCSc1nc(N)c(NC(=O)c2ccco2)c(=O)[nH]1 | > 0.361 µM | > 10 µM | > 1.02 µM
Cc1ccc(C2CC(C(F)(F)F)n3ncc(C(=O)Nc4ccc(Cl)cc4)c3N2)cc1 (stereo not drawn) | 2.87 µM | 95 µM | 3.44 µM

SMILES | EC50 (Plasmodium falciparum [1]) | CC50 [2] | EC50 (Plasmodium falciparum [3])
COc1cc2c(N3CCOCC3)cc(O)c(CC(=O)Nc3ccccc3)c2cc1OC | 0.626 µM | > 100 µM | 0.712 µM
O=C(Nc1ccc(C23CC4CC(CC(c5ccccc5)(C4)C2)C3)cc1)c1cccs1 | 0.645 µM | > 100 µM | 0.468 µM
Cc1cc2c(cc1C)-c1c(ssc1=Nc1cccc(C)c1C)C(C)(C)N2 | 8.59 µM | > 100 µM | 1.62 µM
O=C(c1ccc([N+](=O)[O-])cc1[N+](=O)[O-])N1CCCCC1 | > 12.5 µM | > 100 µM | 4.86 µM
NC(=S)NN=CC(=NNC(N)=S)c1ccccc1 | 0.0481 µM | > 10 µM | 0.0376 µM
CCOC(=O)c1[nH]c2ccc(OC)cc2c1N=NN(C)C | 0.447 µM | 68.6 µM | 0.966 µM
CCc1ccc2[nH]c(=O)c(CN(CCN(C)C)C(=S)NCCCN(C)C)cc2c1 | 1.76 µM | > 10 µM | > 1.46 µM
COC(=O)[C@@H]1C[C@H](NC(=O)c2ccc(OC)cc2OC)CN1Cc1cccc2ccccc12 | > 1.25 µM | > 10 µM | > 0.0809 µM
CCN1CCN(c2c(Cl)cccc2NC(=O)C(Cl)(Cl)Cl)CC1 | 1.67 µM | > 100 µM | 1.19 µM
O=C(NCCCN1CCOCC1)c1c[nH]c2ccc(S(=O)(=O)N3CCc4ccccc43)cc2c1=O | 0.61 µM | > 100 µM | 1.11 µM
O=C1N(c2ccccc2)C[C@@H]2C[C@@H](c3ccc4nonc4c3)N3CCC[C@@]123 | 2.37 µM | > 22.1 µM | 2.5 µM
Clc1cccc(C(Nc2cccnc2)(c2ccccc2)c2ccccc2)c1 | 0.618 µM | > 10 µM | 1.19 µM
COC(=O)c1[nH]c2ccc(Cl)cc2c1NC(=O)C(C)N1CCN(C2CCCCC2)CC1 (stereo not drawn) | 7.74 µM | > 100 µM | > 12.5 µM
CCOC(=O)c1ccc(N2C(=O)c3[nH]nc(C)c3C2c2ccccc2OC)cc1 (stereo not drawn) | 0.61 µM | > 10 µM | > 0.655 µM
COc1ccc(S(=O)(=O)NCCCCNc2ccnc3cc(Cl)ccc23)cc1 | 0.345 µM | > 10 µM | 0.484 µM
Cc1ccc(-n2c(SCc3ccc(F)cc3)nnc2C(Cc2ccccc2)NC(=O)NC(C)(C)C)cc1 (stereo not drawn) | 0.33 µM | > 62.3 µM | 0.125 µM
CCC(c1ccc(F)cc1)n1cc(C(=O)NCCCN2CCC(C)CC2)nn1 (stereo not drawn) | > 0.651 µM | > 10 µM | > 1.64 µM
O=C1[C@@H]2Cc3c([nH]c4ccccc34)C(CCc3ccccc3)N2C(=O)CN1CCc1c[nH]c2ccccc12 (stereo partly drawn) | 2.81 µM | > 100 µM | 1.05 µM
O=c1c(=Cc2ccc(Cl)cc2)sc2nc3ccccc3n12 | > 0.436 µM | > 10 µM | 0.19 µM
Oc1ccccc1C=NNc1nnc2c3ccccc3n(Cc3ccccc3)c2n1 | > 0.832 µM | > 10 µM | > 1.72 µM
Cc1cc(Cl)c(S(=O)(=O)N2CCSCC2)cc1OCC(=O)NC1CCCCC1 | 0.186 µM | > 100 µM | 0.153 µM
N=c1c2c(n(Cc3cccc(Cl)c3)c3c1CCC3)CCCC2 | 0.992 µM | > 10 µM | 0.378 µM
CC(c1nc2ccc(Cl)cc2c(=O)n1C)N1CCN(S(=O)(=O)c2cccc3ccccc23)CC1 (stereo not drawn) | 0.147 µM | > 100 µM | 0.14 µM
CCN(CC)CCNc1ncnc2c1[nH]c1ccc(F)cc12 | 0.277 µM | 31.5 µM | 0.169 µM
COC(=O)C1=CNC=C(C(=O)OC)C1c1cc(Br)ccc1OC | > 12.2 µM | > 57.8 µM | 4.52 µM
